US6355665B1, “1H-4(5)-substituted imidazole derivatives, their preparation and their use as histamine H3 receptor ligands” (James Black Foundation Limited, priority 1997, dated 2002)
Read-outs that look alike come from different tables or passages of the source.

How the values were obtained:
Histamine H3 receptor [1] = molecular target: T1, Histamine H3 receptor (Cavia porcellus, UniProt Q9JI35); assay: Histamine H3 radioligand binding assay, guinea pig cortex ([3H]-R-α-methylhistamine); parameters: The cortex was dissected, weighed and homogenised in ice-cold 20 mM Hepes-NaOH buffer; from tissue; host or cells: guinea pig cerebral cortex membranes
T1 sequence (Q9JI35 whole entry): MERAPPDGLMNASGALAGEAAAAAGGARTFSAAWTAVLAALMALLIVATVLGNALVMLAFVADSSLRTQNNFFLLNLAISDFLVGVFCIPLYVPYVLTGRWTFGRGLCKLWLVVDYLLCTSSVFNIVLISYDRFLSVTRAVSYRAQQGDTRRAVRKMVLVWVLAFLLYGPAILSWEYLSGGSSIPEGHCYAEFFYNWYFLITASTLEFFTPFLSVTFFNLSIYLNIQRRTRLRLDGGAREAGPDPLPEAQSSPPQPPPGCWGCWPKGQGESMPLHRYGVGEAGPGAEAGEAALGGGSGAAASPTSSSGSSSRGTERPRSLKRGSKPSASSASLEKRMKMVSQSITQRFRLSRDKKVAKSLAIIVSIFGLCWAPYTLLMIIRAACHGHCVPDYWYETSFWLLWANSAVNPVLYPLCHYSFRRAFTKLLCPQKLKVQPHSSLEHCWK
Method: Histamine H3 Radioligand Binding Assay—Guinea Pig Cortex
Male Dunkin Hartley guinea pigs (200-300 g) were used. The whole brain was removed and immediately placed in ice-cold 20 mM Hepes-NaOH buffer (pH7.4 at 21±3° C.). The cortex was dissected, weighed and homogenised in ice-cold 20 mM Hepes-NaOH buffer (pH7.4 at 21±3° C.) (50 ml/guinea-pig cortex) using a polytron (Kinematica AG; PT-DA 3020/2TS, 3×3 s). The homogenate was centrifuged at 100×g for 5 min and the supernatants pooled and stored at 4° C. The pellets were rehomogenised in fresh ice-cold buffer (80 ml) and recentrifuged (100×g for 5 min). The supernatants were pooled and pellets rehomogenised and recentrifuged (100×g for 5 min). All supernatants were pooled and centrifuged at 39,800×g for 12 min at 4° C. The final pellet was resuspended in 20 mM Hepes-NaOH buffer (pH7.4 at 21±3° C.) to a tissue concentration of 7.5 mg.ml^−1, using a teflon-in-glass homogeniser.
Incubation Conditions and Data Analysis
These were essentially identical to those used for the guinea pig ileum myenteric plexus assay described above, except that the final assay concentration of [^3H]-R-α-methylhistamine was 0.1 nM. Typical variance in this assay is ±0.12 log units.

Histamine H3 receptor [2] = molecular target: T1, Histamine H3 receptor; assay: ileal longitudinal muscle, myenteric plexus functional assay (rightward shift of R-(α)-methylhistamine E/[A] curves, Schild); format: cell-based; parameters: the longitudinal muscle layer and adhering myenteric plexus was teased away; from tissue; host or cells: guinea pig ileal longitudinal muscle with myenteric plexus (organ bath); details: guinea pig ileum longitudinal muscle myenteric plexus, electrically stimulated; antagonism of R-(α)-methylhistamine; typical variance ±0.15 log units; read-out: pKB (functional assay) - ileum (converted)
Method: The biological activity of the compounds of the examples was measured using the ileal longitudinal muscle, myenteric plexus assay described by Paton and Aboo Zar (J. Physiol. 1968, 194, 13-33). Male Dunkin-Hartley guinea pigs (250-300 g) were employed. Briefly, a 50 cm portion of ileum proximal to the caecum was removed, after discarding the terminal 20 cm. Ileal segments (3 cm) were cleaned by passing Krebs-Henseleit buffer containing 3 μM mepyramine gently through the ileum using a Pasteur pipette (size: 13.8 cm length, 0.65 cm diameter). To avoid unnecessary damage to the tissue, Krebs-Henseleit buffer was passed through the ileal segment, while it was lying horizontally on a petri dish. Therefore, the ileum was not over-distended and the buffer flowed through with ease. Each segment was then passed over a Pasteur pipette and the longitudinal muscle layer and adhering myenteric plexus was teased away using moist cotton wool, by stroking tangentially away from the mesenteric attachment. The tissues were suspended in 20 ml organ baths containing Krebs-Henseleit buffer at 37±1° C. and gassed with 95% CO2/5% O2. The tissues were ligated to two parallel stainless steel wires, situated between two platinum electrodes (0.76 cm length, 0.06 cm diameter). All measurements were recorded isometrically (Grass FTO3 transducer). Following an initial loading tension of 1 g, the tissues were stimulated with electrical pulses at a frequency of 0.1 Hz and a pulse duration of 0.5 msec, as described by Kosterlitz & Watt (Br. J. Pharmacol. 1968, 266-276). Initially, the tissues were stimulated at supramaximal (1.3 fold times maximal) voltage for a period of 30 min and then the tissues were washed and re-stimulated. A “sighter dose” of the selective histamine H3-receptor agonist, R-(α)-methylhistamine (0.3 μM) (Arrang et al. Nature, 1987, 117-123), was administered. Upon generation of response, the “sighter dose” was removed from the tissues by “washout” (6 washes over 60 min) and during this period the electrical stimulation was switched off. The tissues were then re-stimulated and allowed to stabilise prior to the addition of drug treatments, which were allocated on a randomised block basis to the organ baths. Following the incubation period, a single cumulative E/[A] curve was obtained. The experimental E/[A] curve data was expressed as the percentage inhibition of the peak height of electrically-stimulated contraction. Antagonist affinity values were calculated from the degree of rightward shift of the R-(α)-methylhistamine E/[A] curves using Schild's methods (Arunlakshana & Schild Br. J. Pharmacol. 1959, 48-58). Typical variance in this assay is ±0.15 log units.

[3] = guinea pig cortex membranes, [3H]-R-α-methylhistamine 0.1 nM, typical variance ±0.12 log units, read-out: pKI (binding assay) - cortex (converted)

| SMILES | Ki (Histamine H3 receptor [1]; [3]) | Kb (Histamine H3 receptor [2]) | Ki (Histamine H3 receptor [1]) |
| --- | --- | --- | --- |
| O=S(=O)(CC(O)CCc1c[nH]cn1)NCc1ccc(Cl)cc1 (stereo not drawn) [Example 2, N-(4-Chlorobenzyl)-2-hydroxy-4-(1H-imidazol-4-yl)-1-butanesulfonamide] | 275 nM | 240 nM | – |
| O=C(CCc1c[nH]cn1)CS(=O)(=O)NCc1ccc(Cl)cc1 [Example 4, N-(4-Chlorobenzyl)-2-oxy-4-(1H-imidazol-4-yl)-1-butanesulfonamide] | 61.7 nM | 257 nM | – |
| O=S(=O)(CCCCCCc1c[nH]cn1)NCc1ccc(Cl)cc1 [Example 7, N-(4-Chlorobenzyl)-6-(1H-imidazol-4-yl)-1-hexanesulfonamide] | 2.88 nM | 5.13 nM | – |
| O=S(=O)(CC(O)CCCCc1c[nH]cn1)NCc1ccc(Cl)cc1 (stereo not drawn) [Example 8, N-(4-Chlorobenzyl)-2-hydroxy-6-(1H-imidazol-4-yl)-1-hexanesulfonamide] | 4.27 nM | 12.6 nM | – |
| O=S(=O)(CCCCc1c[nH]cn1)NCCc1ccc(Cl)cc1 [Example 9, N-(4-Chlorophenethyl)-4-(1H-imidazol-4-yl)-1-butanesulfonamide] | 44.7 nM | 302 nM | – |
| O=S(=O)(CC(O)CCc1c[nH]cn1)NCCc1ccc(Cl)cc1 (stereo not drawn) [Example 10, N-(4Chlorophenethyl)-2-hydroxy-4-(1H-imidazol-4-yl)-1-butanesulfonamide] | 741 nM | – | – |
| O=S(=O)(CCCCCc1c[nH]cn1)NCCc1ccc(Cl)cc1 [Example 11, N-(4-Chlorophenethyl)-5-(1H-imidazol-4-yl)-1-pentanesulfonamide] | 7.24 nM | 29.5 nM | – |
| O=S(=O)(CCCCCc1c[nH]cn1)NCc1ccccc1 [Example 13, N-Benzyl-5-(1H-imidazol-4-yl)-1-pentanesulfonamide] | 8.91 nM | 58.9 nM | – |
| O=S(=O)(CC(O)CCCc1c[nH]cn1)NCc1ccccc1 (stereo not drawn) [Example 14, N-Benzyl-2-hydroxy-5-(1H-imidazol-4-yl)-1-pentanesulfonamide] | 81.3 nM | 724 nM | – |
| O=S(=O)(CCCCCc1c[nH]cn1)NCc1ccc(Br)cc1 [Example 15, N-(4-Bromobenzyl)-5-(1H-imidazol-4-yl)-1-pentanesulfonamide] | 0.891 nM | 3.39 nM | – |
| O=S(=O)(CC(O)CCCc1c[nH]cn1)NCc1ccc(Br)cc1 (stereo not drawn) [Example 16, N-(4-Bromobenzyl)-2-hydroxy-5-(1H-imidazol-4-yl)-1-pentanesulfonamide] | 1.12 nM | 18.2 nM | – |
| O=S(=O)(CCCCCc1c[nH]cn1)NCC1CCCCC1 [Example 17, N-Cyclohexylmethyl-5-(1H-imidazol-4-yl)-1-pentanesulfonamide] | 21.9 nM | 46.8 nM | – |
| O=S(=O)(CC(O)CCCc1c[nH]cn1)NCC1CCCCC1 (stereo not drawn) [Example 18, N-Cyclohexylmethyl-2-hydroxy-5-(1H-imidazol-4-yl)-1-pentanesulfonamide] | 141 nM | 389 nM | – |
| O=S(=O)(CCCCCc1c[nH]cn1)NCc1ccccc1Cl [Example 19, N-(2-Chlorobenzyl)-5-(1H-imidazol-4-yl)-1-pentanesulfonamide] | 19.5 nM | 245 nM | – |
| O=S(=O)(CC(O)CCCc1c[nH]cn1)NCc1ccccc1Cl (stereo not drawn) [Example 20, N-(2-Chlorobenzyl)-2-hydroxy-5-(1H-imidazol-4-yl)-1-pentanesulfonamide] | 126 nM | 331 nM | – |
| O=S(=O)(CCCCCc1c[nH]cn1)NCc1cccc(Cl)c1 [Example 21, N-(3-Chlorobenzyl)-5-(1H-imidazol-4-yl)-1-pentanesulfonamide] | 12 nM | 58.9 nM | – |

| SMILES | Ki (Histamine H3 receptor [1]; [3]) | Kb (Histamine H3 receptor [2]) | Ki (Histamine H3 receptor [1]) |
| --- | --- | --- | --- |
| O=S(=O)(CC(O)CCCc1c[nH]cn1)NCc1cccc(Cl)c1 (stereo not drawn) [Example 22, N-(3-Chlorobenzyl)-2-hydroxy-5-(1H-imidazol-4-yl)-1-pentanesulfonamide] | 28.8 nM | 79.4 nM | – |
| O=S(=O)(CCCCc1c[nH]cn1)CCc1ccccc1 [Example 23, [4-(1H-Imidazol-4-yl)butyl]phenethyl sulfone] | – | 214 nM | 47.9 nM |
| O=S(=O)(CCCCc1c[nH]cn1)CCc1ccc(Cl)cc1 [Example 24, [4-(1H-Imidazol-4-yl)butyl] 4-chlorophenethyl sulfone] | 5.62 nM | 10.7 nM | – |
| O=S(=O)(CCCCc1c[nH]cn1)Cc1ccc(Cl)cc1 [Example 25, [4-(1H-Imidazol-4-yl)butyl]-4-chlorobenzyl sulfone] | 18.6 nM | 30.2 nM | – |
| O=S(=O)(CCCCCc1c[nH]cn1)NCc1ccc(F)cc1 [Example 28, N-(4-Fluorobenzyl)-5-(1H-imidazol-4-yl)-1-pentanesulfonamide] | 7.08 nM | 19.1 nM | – |
| Cc1ccc(CNS(=O)(=O)CCCCCc2c[nH]cn2)cc1 [Example 29, N-(4-Methylbenzyl)-5-(1H-imidazol-4-yl)-1-pentanesulfonamide] | 6.17 nM | 25.7 nM | – |
| O=S(=O)(CCCCCc1c[nH]cn1)NCc1ccc(C(F)(F)F)cc1 [Example 30, N-(4-Trifluoromethylbenzyl)-5-(1H-imidazol-4-yl)-1-pentanesulfonamide] | 1.51 nM | 9.33 nM | – |
| O=S(=O)(CCCCCc1c[nH]cn1)NCC12CC3CC(CC(C3)C1)C2 [Example 31, N-(1-Adamantylmethyl)-5-(1H-imidazol-4-yl)-1-pentanesulfonamide] | 186 nM | 174 nM | – |
| O=S(=O)(/C=C/CCCc1c[nH]cn1)NCc1ccc(Cl)cc1 [Example 32, (E)-N-(4-Chlorobenzyl)-5-(1H-imidazol-4-yl)-1-pent-1-enesulfonamide] | 5.89 nM | 25.1 nM | – |
| O=S(=O)(C/C=C/CCc1c[nH]cn1)NCc1ccc(Cl)cc1 [Example 33, (E)-N-(4-Chlorobenzyl)-5-(1H-imidazol-4-yl)-1-pent-2-enesulfonamide] | 0.851 nM | 4.68 nM | – |
| CN(Cc1ccc(Cl)cc1)S(=O)(=O)CCCCCc1c[nH]cn1 [Example 34, N-(4-Chlorobenzyl)-N-methyl-5-(1H-imidazol-4-yl)-1-pentanesulfonamide] | 10.2 nM | 17.4 nM | – |
| NCCCN(Cc1ccc(Cl)cc1)S(=O)(=O)CCCCCc1c[nH]cn1 [Example 35, N-(4-Chlorobenzyl)-N-(3-aminopropyl)-5-(1H-imidazol-4-yl)-1-pentanesulfonamide] | 18.2 nM | 151 nM | – |
| O=S(=O)(CCCCCc1c[nH]cn1)N(Cc1ccccc1)Cc1ccc(Cl)cc1 [Example 36, N-Benzyl-N-(4-chlorobenzyl)-5-(1H-imidazol-4-yl)-1-pentanesulfonamide] | 200 nM | 1550 nM | – |
| O=[N+]([O-])CC(CCCc1c[nH]cn1)CS(=O)(=O)NCc1ccc(Cl)cc1 (stereo not drawn) [Example 37, N-(4-Chlorobenzyl)-2-nitromethyl-5-(1H-imidazol-4-yl)-1-pentanesulfonamide] | 6.61 nM | 20.4 nM | – |
| NC(CCCc1c[nH]cn1)CS(=O)(=O)NCc1ccc(Cl)cc1 (stereo not drawn) [Example 40, 2-Amino-N-(4-chlorobenzyl)-5-(1H-imidazol-4-yl)-1-pentanesulfonamide] | 22400 nM | – | – |
